Here are results for 87 compounds from a melting point compilation (Tetko et al.).

Take `CC(CC(=O)O)c1ccccc1Br` (configuration not stated): the melting point – broadly, the temperature, or range, at which the solid turns liquid – lay within 61 to 63 °C.

`O=C(O)c1cccnc1Nc1cc(F)ccc1F` displayed a melting point of 248 to 250 °C.

Compound `Cc1cc(C)cc(N(CCC#N)C(=O)CCl)c1` displayed a melting point of 67 to 69 °C.

`CC(C)(C)c1cc(=O)[nH]c(C(C)(C)C)n1` gave a melting point of 163 to 165 °C.

`O=C(O)c1cc(Br)c2occc2c1` yielded a melting point of 239 to 241 °C.

In turn, `Sc1ccc(Cl)cn1` registered a melting point of 214 to 216 °C.

Consider `CN(C)S(=O)(=O)c1ccc(Br)c(C(=O)O)c1`, for which the melting point lay in the range of 174 to 176 °C.

In turn, `Oc1ccc(-c2cnc3ccccc3n2)cc1` displayed a melting point of 204 to 206 °C.

`COc1ccc(C=NO)cc1` yielded a melting point of 64 to 66 °C.

`Cc1nc2c([nH]1)CCC(C(=O)O)C2` (configuration not stated): the melting point fell in the range of 229 to 231 °C.

Compound `NC(=O)c1ccc(Br)c(C(F)(F)F)c1` yielded a melting point of 138 to 140 °C.

Regarding `O=C1NCC(=O)N2CCCCC12` (configuration not stated), the melting point is 153 to 155 °C.

Consider `Cc1cc(N)nn1-c1ccc(Cl)c(Cl)c1`, for which the melting point fell in the range of 124 to 126 °C.

Consider `NS(=O)(=O)c1ccc(Sc2ccccc2C(=O)O)cc1`, for which the melting point fell in the range of 226 to 228 °C.

As for `CC(C)(C)c1ccc(CCCC(=O)O)cc1`, the melting point was in the range of 53 to 55 °C.

Take `CC(C)CCNC(N)=O`: the melting point was 43 to 45 °C.

With `Brc1cnc(NCc2ccncc2)nc1`, the melting point fell in the range of 122 to 124 °C.

`COc1ccc(NC(=O)c2ccc(C(=O)O)s2)cc1` came in with a melting point of 247 to 249 °C.

`O=C(O)c1cccc(S(=O)(=O)F)c1`: the melting point was 152 to 154 °C.

The compound `COc1ccc(C(=O)Nc2nc(C)cs2)cc1N` displayed a melting point of 164 to 166 °C.

`COc1cc(C#N)cc(Cl)c1O` came in with a melting point of 141 to 143 °C.

In turn, `CCC(Nc1nnnn1-c1ccccc1)C(=O)O` (configuration not stated) came in with a melting point of 149 to 151 °C.

As for `Nc1ccc2oc(=O)ccc2c1`, the melting point fell in the range of 159 to 161 °C.

Compound `CCOc1cc(C=O)cc(Br)c1OC` came in with a melting point of 52 to 54 °C.

`CN(CC(=O)O)c1ccc(Cl)cn1`: the melting point lay within 135 to 137 °C.

For `Cc1ccc2c(CCl)cc(=O)oc2c1`, the melting point is 170 to 172 °C.

The compound `CCOC(=O)c1cc(-c2ccccc2)ccc1N` came in with a melting point of 59 to 61 °C.

The compound `O=C(O)c1noc(-c2cccc(F)c2)n1` returned a melting point of 120 to 122 °C.

`COc1c(Cl)ccnc1O` yielded a melting point of 169 to 171 °C.

`CN1CCN(CCOc2ccc(N)cc2)CC1` displayed a melting point of 63 to 65 °C.

The compound `COC(=O)c1cnc[nH]1` returned a melting point of 154 to 156 °C.

As for `COc1cc(N)ccc1S(=O)(=O)Nc1ccc(Cl)cc1Cl`, the melting point was in the range of 199 to 201 °C.

`CCc1ccc(-c2cnnc(N)n2)cc1`: the melting point lay in the range of 248 to 250 °C.

Turning to `NNc1nccnc1Cl`, the melting point fell in the range of 153 to 155 °C.

Compound `O=C1CN(C(=O)CCl)CCN1` registered a melting point of 124 to 126 °C.

As for `O=C(O)c1nc(=O)[nH][nH]1`, the melting point lay in the range of 202 to 204 °C.

Consider `COCCOc1ccc(Cl)cc1S(N)(=O)=O`, for which the melting point was 124 to 126 °C.

As to `COc1cc2c(cc1OC)CC(=O)NCC2`, the melting point was 192 to 194 °C.

Consider `CN1C(=O)CCc2cc(C(=O)O)ccc21`, for which the melting point is 209 to 211 °C.

Take `O=S(=O)(Cl)C1c2ccccc2-c2ccccc21`: the melting point lay in the range of 84 to 86 °C.

For `Cc1c(C(=O)O)sc2nc(CCl)[nH]c(=O)c12`, the melting point lay within 322 to 324 °C.

In turn, `CCCc1cc(Cl)n2nc(C(=O)OC)nc2n1` yielded a melting point of 117 to 119 °C.

Take `CS(=O)(=O)C1CSCCN1` (configuration not stated): the melting point was 115 to 117 °C.

The compound `Nc1ccc(Oc2ccc(C(F)(F)F)cn2)c(F)c1` registered a melting point of 90 to 92 °C.

With `CN1CCN(CCNCc2ccc(Br)cc2F)CC1`, the melting point was in the range of 45 to 47 °C.

Consider `Cn1cc(-c2ccc(Cl)nn2)cn1`, for which the melting point lay in the range of 188 to 190 °C.

`Cc1cc(Br)cc([N+](=O)[O-])c1O` displayed a melting point of 89 to 91 °C.

Consider `COc1cccc(C(=O)c2cccnc2)c1`, for which the melting point lay within 72 to 74 °C.

Take `NC(=O)C1COCCN1` (configuration not stated): the melting point lay within 168 to 170 °C.

`O=c1[nH]c(CN2CCOCC2)nc2sc3c(c12)CCCC3` had a melting point of 162 to 164 °C.

The compound `CC(C)CC(C(=O)O)N1CCCCC1=O` (configuration not stated) returned a melting point of 182 to 184 °C.

Compound `NS(=O)(=O)c1ccc2c(c1)NCCC2` had a melting point of 164 to 166 °C.

In turn, `[N-]=[N+]=NC1(c2ccc(F)cc2)CCOCC1` displayed a melting point of 63 to 65 °C.

`CCOc1cc(Cl)ccc1C(=O)O` displayed a melting point of 119 to 121 °C.

Turning to `CCOC(=O)c1sc(-c2ccc(OC)c(OC)c2)cc1N`, the melting point was in the range of 120 to 122 °C.

In turn, `Cc1cc(O)cc(=O)n1C1CC1` registered a melting point of 264 to 266 °C.

As for `CCOC(=O)c1sc2nc(CCl)[nH]c(=O)c2c1C`, the melting point was in the range of 190 to 192 °C.

`COc1ccccc1NS(=O)(=O)c1cc(C(=O)O)ccc1Cl` showed a melting point of 176 to 178 °C.

As to `O=C(O)c1cc(Br)cc(Cl)c1O`, the melting point is 207 to 209 °C.

In turn, `O=C(CCl)Nc1ccc(NC(=O)c2cccs2)cc1` returned a melting point of 243 to 245 °C.

With `Nc1cccc(S(=O)(=O)Nc2ccc(Cl)cc2)c1`, the melting point is 127 to 129 °C.

`COc1cc(OC)cc(C(=O)N2CCC(C(=O)O)CC2)c1` displayed a melting point of 164 to 166 °C.

Turning to `O=C(O)c1ccn(Cc2ccccc2)c1`, the melting point lay within 150 to 152 °C.

Turning to `Cn1cc(C=O)c(-c2cccnc2)n1`, the melting point lay within 86 to 88 °C.

In turn, `CCc1noc(-c2ccc(N)c(Cl)c2)n1` yielded a melting point of 89 to 91 °C.

Take `CC1=NN(c2ccc(F)cc2)C(=O)C1`: the melting point lay in the range of 148 to 150 °C.

In turn, `CC(C)S(=O)(=O)c1ccc(C(=O)O)cc1` gave a melting point of 186 to 188 °C.

Compound `Fc1ccccc1-c1nnc2ccc(Cl)nn12` had a melting point of 164 to 166 °C.

`CC(C)(C)NC(=O)CCl` came in with a melting point of 75 to 77 °C.

Turning to `N#CCOc1ccc(CO)cc1`, the melting point was in the range of 98 to 100 °C.

`CN(C)C(=O)c1cccc(O)c1` displayed a melting point of 126 to 128 °C.

Compound `O=C(O)c1cn(CCOc2ccccc2Cl)c2ccccc12` gave a melting point of 186 to 188 °C.

In turn, `Cn1ccnc1C(=O)OCC(F)(F)F` came in with a melting point of 83 to 85 °C.

Compound `c1ccc2c(c1)CC(n1cccn1)CN2` (configuration not stated) registered a melting point of 102 to 104 °C.

On to `Cc1c(N)cc(C#N)cc1F`, for which the melting point lay in the range of 135 to 137 °C.

The compound `CCC1=NN(C)C(=O)C1` registered a melting point of 89 to 91 °C.

Turning to `O=C(O)Cc1csc2nc(-c3ccccc3)cn12`, the melting point fell in the range of 220 to 222 °C.

As for `Nc1cccc(-n2cc[nH]c2=O)c1`, the melting point lay within 155 to 157 °C.

With `COc1ccc(CNC(=O)C2CCNCC2)cc1`, the melting point was in the range of 118 to 120 °C.

Compound `CCOC(=O)c1nnn(-c2cccc([N+](=O)[O-])c2)c1N` showed a melting point of 151 to 153 °C.

In turn, `O=C(O)C1CCCCS1(=O)=O` (configuration not stated) came in with a melting point of 166 to 168 °C.

Consider `COCc1ccccc1S(N)(=O)=O`, for which the melting point fell in the range of 59 to 61 °C.

Compound `CC(C)(C)OC(=O)NCC1CCCCN1` (configuration not stated) registered a melting point of 93 to 95 °C.

As to `CN(C)C(=O)c1csc(C(=O)CCl)c1`, the melting point was 142 to 144 °C.

On to `CN1CC(=O)N(Cc2ccc(C(N)=O)cc2[N+](=O)[O-])C1=O`, for which the melting point lay within 219 to 221 °C.

`CNC(CCO)c1ccccc1` (configuration not stated) registered a melting point of 56 to 58 °C.

The compound `COc1ccc(CC(=O)O)cc1S(=O)(=O)N1CCOCC1` displayed a melting point of 116 to 118 °C.
